# pKd: −log10 of the molar value.
# Experiments:
# [1] = test system: S. epidermidis RP62A SpsIB(S29P); assay: In vitro antimicrobial activity, MIC by broth micro-dilution; format: cell-based; settings: Staphylococcus epidermidis
# [2] = test system: P. aeruginosa PA01 LepB(P84L); assay: as above; format: cell-based; settings: Pseudomonas aeruginosa
# In short: (§1)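 CLSI broth micro-dilution MIC against two-fold serial compound dilutions. Inoculum came from colonies grown 24 h at 35° C. or 28° C., suspended in cation-adjusted Mueller Hinton broth at 1*10^7 CFU/ml, of which 5 μl was added per 100 μl well. LepB(P84L) is a proline-mutant SPase strain with heightened arylomycin susceptibility.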
# [3] = test system: S. aureus NCTC-8325 SpsB(P295); assay: as above; format: cell-based; settings: Staphylococcus aureus, NCTC8325
# [4] = test system: E. coli MIG1655 LepB(P84L); assay: as above; format: cell-based; settings: Escherichia coli
# In short: as §1
# S. pneumoniae D39 = assay: as above; format: cell-based; settings: Streptococcus pneumoniae; S. pneumoniae D39; read-out: MIC
# S. epidermidis RP62A = assay: as above; format: cell-based; settings: Staphylococcus epidermidis; S. epidermidis RP62A; read-out: MIC
# [5] = test system: S. epidermidis RP62A SpsIB(S31P); assay: as above; format: cell-based; settings: Staphylococcus epidermidis
# E. coli SPase = biological target: T1, E. coli SPase (Escherichia coli, UniProt P00803); assay: Steady state binding constant (Kd) determination by fluorescence increase
# T1 construct: Full length His-tagged E. coli SPase proteins were expressed in E. coli BL21(DE3); His-tag; made in house; host or cells: E. coli BL21(DE3)
# Protocol: (§2) Full length His-tagged E. coli SPase proteins were expressed in E. coli BL21(DE3) containing the plasmid pET23-lepB, P. A. Smith et al. Chem Biol 2010, 1223-1231. Briefly, saturated overnight cultures grown in 20 ml of Luria-Bertani medium supplemented with ampicillin were subcultures into 1.5 L of Luria-Bertani, and shaken at 37° C. until an optical density at 600 nm of 0.4-0.5 was achieved. Protein expression was induced with Isopropyl β-D-1-thiogalactopyranoside (ITPG) at a final concentration of […], and purified using nickel affinity chromatography. Full length His-tagged S. aureus SPase protein was expressed similarly from E. coli BL21(DE3) containing the plasmid pCDF1-SaSpsB or pCDF1-SaSpsB(P29S) and purified similarly to the E. coli protein with the following exceptions. SPase protein was solubilized using 300 mM NaCl, 20 mM Tris pH 8.06, 5 mM Imidazole, 10% glycerol, 1% Triton X-100, prior to purification in Ni-NTA Superflow resin and resin bound protein was washed in a similar buffer containing 1% Elugent in place of Triton X-100 prior to protein eluted in wash buffer supplemented with 300 mM imidazole. Protein purify was judged to exceed 95% by visual inspection of SDS-PAGE followed by Comassie staining. All protein concentrations were determined by BCA assay.
# (§3) Steady state binding constants (Kds) of compounds were determined by measuring an increase in fluorescence (λex=280 nm, λem=405 nm) that occurs upon binding to E. coli or S. aureus SPase protein. Two-fold serial dilutions of compounds were prepared in 100% DMSO, and compounds were diluted into binding buffer consisting of 100 mM NaCl, 20 mM Tris-HCl pH 7.4, 1 mM EDTA, 1% n-octyl-3-glucopyranoside (Anatrace), and 10% glycerol, with the final DMSO concentration equal to 1%. 70 μl of the resulting solutions containing various concentrations of compound in binding buffer were aliquoted into triplicate wells of a black polystyrene 384-well plate. 5 μl of blank solution or E. coli or S. aureus protein at concentrations of 750 or 3750 nM respectively, were added to each set of wells for a given inhibitor concentration. Plates were incubated for 14 hours and fluorescence read on an EnVision Multilable plate reader (Perkin Elmer™). Differences in fluorescence values between wells with and without protein were determined and background corrected for protein auto fluorescence. The corrected fluorescence difference data was fit to the quadratic equilibrium binding curve using the non-linear regression analysis software Solver (Frontline Systems®) run in Excel 2010, (Microsoft®), using experimentally determined quantum efficiency constants to convert fluorescence into nanomoles of protein/compound complex.
# S. aureus SPase = biological target: T2, S. aureus SPase (Staphylococcus aureus, UniProt P0A070); assay: as above
# T2 construct: Full length His-tagged S. aureus SPase protein was expressed similarly; His-tag; made in house; host or cells: E. coli BL21(DE3)
# Protocol: as §2, §3
# S. agalactiae COH-1 = assay: In vitro antimicrobial activity, MIC by broth micro-dilution; format: cell-based; settings: Streptococcus agalactiae, COH1; S. agalactiae COH-1; read-out: MIC
# [6] = test system: S. epidermidis ATCC 12228; assay: as above; format: cell-based; settings: Staphylococcus epidermidis, ATCC12228, read-out: MIC
# S. pyogenes M15448 = assay: as above; format: cell-based; settings: Streptococcus pyogenes; S. pyogenes M15448; read-out: MIC
# In short: as §1
# S. aureus ATCC 29213 = assay: as above; format: cell-based; settings: Staphylococcus aureus, ATCC29213, read-out: MIC
# S. pneumoniae R800 = assay: as above; format: cell-based; settings: Streptococcus pneumoniae, read-out: MIC
# In short: as §1
# C. glutamicum DSM 44475 = assay: as above; format: cell-based; settings: Corynebacterium glutamicum, DSM44475, read-out: MIC
# S. agalactiae ATCC 13813 = assay: as above; format: cell-based; settings: Streptococcus agalactiae, ATCC13813, read-out: MIC
# S. pyogenes ATCC 19615 = assay: as above; format: cell-based; settings: Streptococcus pyogenes, ATCC19615, read-out: MIC
# R. equi DSM 6939 = assay: as above; format: cell-based; settings: Rhodococcus (subgen. Prescottella) equi, DSM6939, read-out: MIC
# In short: as §1
Compound,MIC [1] [µg/mL],MIC [2] [µg/mL],MIC [3] [µg/mL],MIC [4] [µg/mL],MIC (S. pneumoniae D39) [µg/mL],MIC (S. epidermidis RP62A) [µg/mL],MIC [5] [µg/mL],pKd (E. coli SPase),pKd (S. aureus SPase),MIC (S. agalactiae COH-1) [µg/mL],MIC [6] [µg/mL],MIC (S. pyogenes M15448) [µg/mL],MIC (S. aureus ATCC 29213) [µg/mL],MIC (S. pneumoniae R800) [µg/mL],MIC (C. glutamicum DSM 44475) [µg/mL],MIC (S. agalactiae ATCC 13813) [µg/mL],MIC (S. pyogenes ATCC 19615) [µg/mL],MIC (R. equi DSM 6939) [µg/mL]
CCCCCCCCCCCCCCCC(=O)N(C)[C@H](CO)C(=O)N[C@H](C)C(=O)NCC(=O)N(C)[C@@H]1C(=O)N[C@@H](C)C(=O)N[C@H](C(N)=O)Cc2ccc(O)c(c2)-c2cc1ccc2O [Compound 11],> 64,> 64,32,4,64,2,> 64,7.00,5.68,,,,,,,,,
CCCCCCCCCCCCCCCC(=O)N(C)[C@H](CO)C(=O)N[C@H](C)C(=O)NCC(=O)N(C)[C@@H]1C(=O)N[C@@H](C)C(=O)N[C@H](C(=O)NC)Cc2ccc(O)c(c2)-c2cc1ccc2O [Compound 12],64,> 64,,8,> 64,2,> 64,6.62,6.22,,,,,,,,,
CCCCCCCCCCCCCCCC(=O)N(C)[C@H](CO)C(=O)N[C@H](C)C(=O)NCC(=O)N(C)[C@@H]1C(=O)N[C@@H](C)C(=O)N[C@H](C(=O)N(C)C)Cc2ccc(O)c(c2)-c2cc1ccc2O [Compound 13],> 64,> 64,,16,> 64,64,> 64,5.70,< 4.00,,,,,,,,,
CCCCCCCCCCCCCCCC(=O)N(C)[C@H](CO)C(=O)N[C@H](C)C(=O)NCC(=O)N(C)[C@@H]1C(=O)N[C@@H](C)C(=O)N[C@H](C(=O)N[C@@H](C)C(=O)N2CCCC2C(N)=O)Cc2ccc(O)c(c2)-c2cc1ccc2O (stereo partly drawn) [Compound 14],> 64,> 64,8,16,8,2,> 64,5.55,6.22,,,,,,,,,
CCCCCCCCCCCCCCCC(=O)N(C)[C@H](CO)C(=O)N[C@H](C)C(=O)NCC(=O)N(C)[C@@H]1C(=O)N[C@@H](C)C(=O)N[C@H](C(=O)N[C@@H](C)C(N)=O)Cc2ccc(O)c(c2)-c2cc1ccc2O [Compound 15],> 64,> 64,8,8,8,2,> 64,5.24,5.70,> 64,> 64,16,> 64,16,> 64,> 64,16,
CCCCCCCCCCCCCCCC(=O)N(C)[C@H](CO)C(=O)N[C@H](C)C(=O)NCC(=O)N(C)[C@@H]1C(=O)N[C@@H](C)C(=O)N[C@H](C(=O)N[C@@H](C)C(=O)N2CCC[C@H]2C(=O)O)Cc2ccc(O)c(c2)-c2cc1ccc2O [Compound 25],64,> 64,> 64,8,8,4,> 64,,,> 64,16,16,64,8,64,8,16,> 64
CCCCCCCCCCCCCCCC(=O)N(C)[C@H](CO)C(=O)N[C@H](C)C(=O)NCC(=O)N(C)[C@@H]1C(=O)N[C@@H](C)C(=O)N[C@H](C(=O)NCC(N)=O)Cc2ccc(O)c(c2)-c2cc1ccc2O [Compound 26],> 64,> 64,> 64,8,8,4,> 64,,,> 64,32,> 64,> 64,16,32,16,8,64
CCCCCCCCCCCCCCCC(=O)N(C)[C@H](CO)C(=O)N[C@H](C)C(=O)NCC(=O)N(C)[C@@H]1C(=O)N[C@@H](C)C(=O)N[C@H](C(=O)NCC(=O)N2CCCC2C(N)=O)Cc2ccc(O)c(c2)-c2cc1ccc2O (stereo partly drawn) [Compound 27],> 64,> 64,> 64,8,16,8,> 64,,,32,32,32,> 64,32,32,32,32,> 64
CCCCCCCCCCCCCCCC(=O)N(C)[C@H](CO)C(=O)N[C@H](C)C(=O)NCC(=O)N(C)[C@@H]1C(=O)N[C@@H](C)C(=O)N[C@H](C(=O)N[C@@H](C)C(=O)C(=O)N(C)C)Cc2ccc(O)c(c2)-c2cc1ccc2O [Compound 28],> 64,> 64,32,8,8,4,> 64,,,32,16,32,> 64,16,32,16,16,> 64
CCCCCCCCCCCCCCCC(=O)N(C)[C@H](CO)C(=O)N[C@H](C)C(=O)NCC(=O)N(C)[C@@H]1C(=O)N[C@@H](C)C(=O)N[C@H](C(=O)N[C@H](C)C(=O)C(=O)N(C)C)Cc2ccc(O)c(c2)-c2cc1ccc2O [Compound 29],> 64,> 64,> 64,16,16,8,> 64,,,64,32,64,> 64,32,32,32,16,> 64
CCCCCCCCCCCCCCCC(=O)N(C)[C@H](CO)C(=O)N[C@H](C)C(=O)NCC(=O)N(C)[C@@H]1C(=O)N[C@@H](C)C(=O)N[C@H](C(=O)NCC(=O)N2CCC[C@H]2C(=O)O)Cc2ccc(O)c(c2)-c2cc1ccc2O [Compound 31],> 64,> 64,> 64,16,4,8,> 64,,,> 64,32,16,> 64,8,> 64,8,8,> 64
